Test results as given in US20250049931A1, “POLYSARCOSINE-VITAMIN E DERIVATIVES” (POLYPEPTIDE THERAPEUTIC SOLUTIONS, S.L., priority 2021, published 2025).

Experiments:
[1] = Skin permeation studies by Franz diffusion cells; assay type: in vitro ADME, human; conditions: TPGS-Dil and TPSS-Dil micelles 10 mg/mL, 8 h
Protocol: Breast skin samples were obtained from healthy women undergoing plastic surgery after written informed consent (kindly donated by Hospital la Fe, Valencia, Spain). Immediately after excision, the subcutaneous fatty tissue was carefully removed using a scalpel. The skin was cut into 4 cm^2 pieces, wrapped in aluminum foil and stored at −20° C. until use. To reduce inter-individual variability and afford a better comparison of results, skin from only one donor was used in all experiments. Before starting each experiment, the skin was allowed to equilibrate at room temperature (r.t.).
Permeation studies employed the modified Franz diffusion cells (Logan Instruments Corp., EE. UU) with a diffusional area of 0.95 cm^2. […]
Finally, the samples were placed in the optimum cutting temperature (OCT) inclusion medium, and slides of 5 μm were generated via cryostat (version CM1850 UV, Leica, Germany) and samples were analyzed by confocal microscopy.
Images were captured with an inverted DM IRE2 microscope equipped with a λ-blue 40× oil immersion objective and handled with a TCS SP2 system, equipped with an Acoustic Optical Beam Splitter (AOBS). […] Control tissue that follows the same incubation time with MilliQ water was also analyzed to establish the autofluorescence. Dil intensity was quantified five times per sample using Image J software.

[2] = tested on: HaCaT cells; test: Cell viability by MTS assay, HaCaT; assay type: cell-based, human; conditions: 72 h, 0.1 to 2.57 μg/mL equivalents of Vitamin E
[3] = tested on: human fibroblasts; test: Cell viability by MTS assay, fibroblasts; assay type: cell-based; conditions: 72 h, 0.1 to 2.57 μg/mL equivalents of Vitamin E

Row | SMILES | Dil found in the receptor chamber [1] | cytotoxic effect (cell viability by MTS) [2] | cytotoxic effect (cell viability by MTS) [3]
1 | CCCCCCCCCCCCCCCCCCN1C(=CC=CC2=[N+](CCCCCCCCCCCCCCCCCC)c3ccccc3C2(C)C)C(C)(C)c2ccccc21.[O-][Cl+3]([O-])([O-])[O-] [Dil, 1,1′-dioctadecyl-3,3,3′,3′-tetramethylindocarbocyanine perchlorate] | any Dil was found in the receptor chamber |  | 
2 | Cc1c(C)c2c(c(C)c1O)CC[C@@](C)(CCC[C@H](C)CCC[C@H](C)CCCC(C)C)O2 [Vitamin E, α-tocopherol] |  | no cytotoxic effect | no cytotoxic effect
